Data: ChEMBL document CHEMBL1124317, “Rationale for the synthesis and preliminary biological evaluation of highly active new antitumor nitrosoureido sugars” (J Med Chem, 1989)

What was measured:
Format in all cases: functional
[1] = test system: Mus musculus; assay: Anti tumor activity l when treated to mice with L1210 leukemia with 1.25 mg/kg dose of compound intraperitoneally was expressed as percent of treated to control (T/C %); conditions: route intraperitoneal
[2] = test system: Mus musculus; assay: Anti tumor activity l when treated to mice with L1210 leukemia with 2.5 mg/kg dose of compound intraperitoneally was expressed as percent of treated to control (T/C %); conditions: route intraperitoneal
[3] = test system: Mus musculus; assay: Anti tumor activity l when treated to mice with L1210 leukemia with 5 mg/kg dose of compound intraperitoneally was expressed as percent of treated to control (T/C %); conditions: route intraperitoneal
[4] = test system: Mus musculus; assay: The number of L1210 leukemia mice survived after 30 days with compound in aqueous solution injected by a dose of 5 mg/kg intraperitoneally; 7/10; conditions: route intraperitoneal
[5] = test system: Mus musculus; assay: The number of L1210 leukemia mice survived after 30 days with compound injected by a dose of 1.25 mg/kg intraperitoneally; 0/8; conditions: route intraperitoneal
[6] = test system: Mus musculus; assay: The number of L1210 leukemia mice survived after 30 days with compound injected by a dose of 2.5 mg/kg intraperitoneally; 0/8; conditions: route intraperitoneal
[7] = test system: Mus musculus; assay: The number of L1210 leukemia mice survived after 30 days with compound injected by a dose of 5 mg/kg intraperitoneally; 8/8; conditions: route intraperitoneal
[8] = test system: Mus musculus; assay: The number of L1210 leukemia mice survived after 60 days with compound in aqueous solution injected by a dose of 10 mg/kg intraperitoneally; 0/10; conditions: route intraperitoneal
[9] = test system: Mus musculus; assay: Anti tumor activity in olive oil when treated to mice with L1210 leukemia with 10 mg/kg dose of compound intraperitoneally was expressed as percent of treated to control (T/C %); conditions: route intraperitoneal
[10] = test system: Mus musculus; assay: Anti tumor activity in olive oil when treated to mice with L1210 leukemia with 5 mg/kg dose of compound intraperitoneally was expressed as percent of treated to control (T/C %); conditions: route intraperitoneal
[11] = test system: Mus musculus; assay: Median survival time of the non surviving mice; treated with 5 mg/kg of compound in olive oil to mice with L1210 leukemia; 23-49
[12] = test system: Mus musculus; assay: The number of L1210 leukemia mice survived after 60 days with compound in aqueous solution injected by a dose of 5 mg/kg intraperitoneally; 4/10; conditions: route intraperitoneal
[13] = test system: Mus musculus; assay: The number of L1210 leukemia mice survived after 60 days with compound injected by a dose of 5 mg/kg intraperitoneally; 4/8; conditions: route intraperitoneal
[14] = test system: Mus musculus; assay: The number of L1210 leukemia mice survived after 30 days with compound injected by a dose of 0.625 mg/kg intraperitoneally; 0/8; conditions: route intraperitoneal
[15] = test system: Mus musculus; assay: Anti tumor activity l when treated to mice with L1210 leukemia with 0.625 mg/kg dose of compound intraperitoneally was expressed as percent of treated to control (T/C %); conditions: route intraperitoneal
[16] = test system: Mus musculus; assay: The number of L1210 leukemia mice survived after 30 days with compound in aqueous solution injected by a dose of 10 mg/kg intraperitoneally; 0/10; conditions: route intraperitoneal
[17] = test system: Mus musculus; assay: Median survival time of the non surviving mice; treated with 10 mg/kg of compound in olive oil to mice with L1210 leukemia; 15-25
[18] = test system: Mus musculus; assay: Median survival time of the non surviving mice; treated with 5 mg/kg of compound to mice with L1210 leukemia; 43-54
[19] = test system: Mus musculus; assay: Median survival time of the non surviving mice; treated with 0.625 mg/kg of compound to mice with L1210 leukemia; 10-11
[20] = test system: Mus musculus; assay: Median survival time of the non surviving mice; treated with 1.25 mg/kg of compound to mice with L1210 leukemia; 11-15
[21] = test system: Mus musculus; assay: Median survival time of the non surviving mice; treated with 2.5 mg/kg of compound to mice with L1210 leukemia; 17-25
[22] = Mortality range of the mice with L1210 leukemia treated with 5 mg/kg of dose intraperitoneally with no of mice survived/no of mice treated; 0/8; conditions: route intraperitoneal
[23] = Number of mice died/no of mice treated with 10 mg/kg of compound in aqueous solution intraperitoneally with L1210 leukemia; 1/10; conditions: route intraperitoneal
[24] = Mortality range of the mice with L1210 leukemia treated with 1.25 mg/kg of dose intraperitoneally with no of mice survived/no of mice treated; 0/8; conditions: route intraperitoneal
[25] = test system: Mus musculus; assay: Mortality range of the mice with L1210 leukemia treated with 2.5 mg/kg of dose intraperitoneally with no of mice survived/no of mice treated; 0/8; conditions: route intraperitoneal
[26] = Mortality range of the mice with L1210 leukemia treated with 0.625 mg/kg of dose intra peritoneally with no of mice survived/no of mice treated; 0/8
[27] = Number of mice died/no of mice treated with 5 mg/kg of compound in aqueous solution intraperitoneally with L1210 leukemia; 0/10; conditions: route intraperitoneal
[28] = test system: Mus musculus; assay: The number of L1210 Leukemia mice survived after 30 days with compound in olive oil injected by a dose of 20 mg/kg intraperitoneally; 4/15; conditions: route intraperitoneal
[29] = test system: Mus musculus; assay: The number of B16 melanocarcinoma mice survived after 30 days with compound in olive oil injected by a dose of 20 mg/kg intraperitoneally; 9/20; conditions: route intraperitoneal
[30] = test system: Mus musculus; assay: The number of B16 melanocarcinoma mice survived after 60 days with compound in olive oil injected by a dose of 20 mg/kg intraperitoneally; 1/20; conditions: route intraperitoneal
[31] = test system: Mus musculus; assay: Anti tumor activity in olive oil when treated to mice with B16 melanocarcinoma with 20 mg/kg dose of compound intraperitoneally was expressed as percent of treated to control (T/C %); conditions: route intraperitoneal
[32] = test system: Mus musculus; assay: Anti tumor activity in olive oil when treated to mice with L1210 leukemia with 20 mg/kg dose of compound intraperitoneally was expressed as percent of treated to control (T/C %); conditions: route intraperitoneal
[33] = test system: Mus musculus; assay: The number of Lewis lung mice survived after 30 days with compound in olive oil injected by a dose of 20 mg/kg intraperitoneally; 13/20; conditions: route intraperitoneal
[34] = test system: Mus musculus; assay: Anti tumor activity in olive oil when treated to mice with Lewis lung with 20 mg/kg dose of compound intraperitoneally was expressed as percent of treated to control (T/C %); conditions: route intraperitoneal
[35] = test system: Mus musculus; assay: The number of L1210 Leukemia mice survived after 60 days with compound in olive oil injected by a dose of 20 mg/kg intraperitoneally; 3/15; conditions: route intraperitoneal
[36] = test system: Mus musculus; assay: Median survival time of the non surviving mice; treated with 20 mg/kg of compound in olive oil to mice with B16 Melanocarcinoma; 23-45
[37] = test system: Mus musculus; assay: Median survival time of the non surviving mice; treated with 20 mg/kg of compound in olive oil to mice with L1210 leukemia tumor; 21-42
[38] = test system: Mus musculus; assay: Median survival time of the non surviving mice; treated with 20 mg/kg of compound in olive oil to mice with Lewis lung; 21-41
[39] = test system: Mus musculus; assay: The number of Lewis lung mice survived after 60 days with compound in olive oil injected by a dose of 20 mg/kg intraperitoneally; 8/20; conditions: route intraperitoneal
[40] = Ratio of mice died to that of mice treated with 20 mg/kg of compound in olive oil intraperitoneally with B16 Melanocarcinoma; 0/20; conditions: route intraperitoneal
[41] = Ratio of mice died to that of mice treated with 20 mg/kg of compound in olive oil intraperitoneally with L1210 leukemia tumor; 0/15; conditions: route intraperitoneal
[42] = Ratio of mice died to that of mice treated with 20 mg/kg of compound in olive oil intraperitoneally with Lewis lung; 0/20; conditions: route intraperitoneal
[43] = test system: Mus musculus; assay: The number of L1210 Leukemia mice survived after 30 days with compound in olive oil injected by a dose of 20 mg/kg intraperitoneally; 15/15; conditions: route intraperitoneal
[44] = test system: Mus musculus; assay: The number of B16 melanocarcinoma mice survived after 30 days with compound in olive oil injected by a dose of 20 mg/kg intraperitoneally; 1/20; conditions: route intraperitoneal
[45] = test system: Mus musculus; assay: The number of Lewis lung mice survived after 30 days with compound in olive oil injected by a dose of 20 mg/kg intraperitoneally; 14/20; conditions: route intraperitoneal
[46] = test system: Mus musculus; assay: The number of Lewis lung mice survived after 60 days with compound in olive oil injected by a dose of 20 mg/kg intraperitoneally; 6/20; conditions: route intraperitoneal
[47] = test system: Mus musculus; assay: The number of L1210 Leukemia mice survived after 60 days with compound in olive oil injected by a dose of 20 mg/kg intraperitoneally; 15/15; conditions: route intraperitoneal
[48] = test system: Mus musculus; assay: Median survival time of the non surviving mice; treated with 20 mg/kg of compound in olive oil to mice with B16 Melanocarcinoma; 20-32
[49] = test system: Mus musculus; assay: Median survival time of the non surviving mice; treated with 20 mg/kg of compound in olive oil to mice with Lewis lung; 19-46
[50] = test system: Mus musculus; assay: The number of B16 melanocarcinoma mice survived after 60 days with compound in olive oil injected by a dose of 20 mg/kg intraperitoneally; 0/20; conditions: route intraperitoneal

CO[C@H]1C[C@@H](NC(=O)N(CCCl)N=O)[C@H](O)[C@@H](C)O1
T/C [1]: 144%
T/C [2]: 244%
T/C [3]: 539%
Survivals [4]: 7
Survivals [5]: 0
Survivals [6]: 0
Survivals [7]: 8
Survivals [8]: 0
T/C [9]: 198%
T/C [10]: 519%
Median survival time [11]: 49
Survivals [12]: 4
Survivals [13]: 4
Survivals [14]: 0
T/C [15]: 118%
Survivals [16]: 0
Median survival time [17]: 18.75
Median survival time [18]: 48.5
Median survival time [19]: 10.6
Median survival time [20]: 12.9
Median survival time [21]: 21.9
Ratio [22]: 0
Ratio [23]: 1
Ratio [24]: 0
Mortality ratio [25]: 0
Ratio [26]: 0
Ratio [27]: 0

COC1CC(O)C(O)C(CNC(=O)N(CCCl)N=O)O1 (stereo not given)
Survivals [28]: 4
Survivals [29]: 9
Survivals [30]: 1
T/C [31]: 215%
T/C [32]: 263%
Survivals [33]: 13
T/C [34]: 313%
Survivals [35]: 3
Median survival time [36]: 30
Median survival time [37]: 23.5
Median survival time [38]: 39
Survivals [39]: 8
Ratio [40]: 0
Ratio [41]: 0
Ratio [42]: 0

COC1CC(NC(=O)N(CCCl)N=O)C(OC)C(C)O1 (stereo not given)
Survivals [43]: 15
Survivals [44]: 1
T/C [31]: 170%
Survivals [45]: 14
Survivals [46]: 6
T/C [34]: 281%
Survivals [47]: 15
Median survival time [48]: 23.62
Median survival time [49]: 35
Ratio [40]: 0
Ratio [41]: 0
Ratio [42]: 0
Survivals [50]: 0
